# Experimental data from PubChem BioAssay AID1259407 (Chemical Carcinogenesis Research Information System (CCRIS), 2018).
# The source made the active and inactive calls. No rule for the calls is given here.
# Test system: CCRIS mutagenicity, Ames/micronucleus/aberration tests
# Assay: CCRIS mutagenicity studies
# [1] = Test System: AMES SALMONELLA TYPHIMURIUM, Strain/Indicator: TA97, Metabolic Activation: NONE, Method: STANDARD PLATE
# [2] = Test System: AMES SALMONELLA TYPHIMURIUM, Strain/Indicator: TA97, Metabolic Activation: RAT, LIVER, S-9, AROCLOR 1254, Method: STANDARD PLATE
# [3] = Test System: AMES SALMONELLA TYPHIMURIUM, Strain/Indicator: TA98, Metabolic Activation: NONE, Method: STANDARD PLATE
# [4] = Test System: AMES SALMONELLA TYPHIMURIUM, Strain/Indicator: TA98, Metabolic Activation: RAT, LIVER, S-9, AROCLOR 1254, Method: STANDARD PLATE
# [5] = Test System: AMES SALMONELLA TYPHIMURIUM, Strain/Indicator: TA100, Metabolic Activation: NONE, Method: STANDARD PLATE
# [6] = Test System: AMES SALMONELLA TYPHIMURIUM, Strain/Indicator: TA100, Metabolic Activation: RAT, LIVER, S-9, AROCLOR 1254, Method: STANDARD PLATE
# [7] = Test System: AMES SALMONELLA TYPHIMURIUM, Strain/Indicator: TA102, Metabolic Activation: NONE, Method: STANDARD PLATE
# [8] = Test System: AMES SALMONELLA TYPHIMURIUM, Strain/Indicator: TA102, Metabolic Activation: RAT, LIVER, S-9, AROCLOR 1254, Method: STANDARD PLATE
smiles,measurement,setting,value
ClCC1C(CCl)[C@@]2(Cl)C(Cl)=C(Cl)[C@]1(Cl)C2(Cl)Cl (stereo partly drawn),mutagenic call,[1],inactive; negative
same,mutagenic call,[2],inactive; negative
same,mutagenic call,[3],inactive; negative
same,mutagenic call,[4],inactive; negative
same,mutagenic call,[5],inactive; negative
same,mutagenic call,[6],inactive; negative
same,mutagenic call,[7],inactive; negative
same,mutagenic call,[8],inactive; negative
Clc1cncc(Cl)c1,mutagenic call,[1],inactive; negative
same,mutagenic call,[2],inactive; negative
same,mutagenic call,[3],inactive; negative
same,mutagenic call,[4],inactive; negative
same,mutagenic call,[5],inactive; negative
same,mutagenic call,[6],inactive; negative
same,mutagenic call,[7],inactive; negative
same,mutagenic call,[8],inactive; negative
Cn1c(N=[N+]=[N-])nc2ccc3ncccc3c21,mutagenic call,"Test System: AMES SALMONELLA TYPHIMURIUM, Strain/Indicator: TA98(1,8-DNP6), Metabolic Activation: NONE, Method: STANDARD PLATE",active; positive
same,mutagenic call,[3],active; positive
c1ccc2cc3cc4ccccc4cc3cc2c1,mutagenic call,[3],inactive; negative
same,mutagenic call,"Test System: AMES SALMONELLA TYPHIMURIUM, Strain/Indicator: TA98, Metabolic Activation: RAT, LIVER, S-9, 3-METHYLCHOLANTHRENE, Method: STANDARD PLATE",active; positive
same,mutagenic call,[4],active; positive
same,mutagenic call,"Test System: AMES SALMONELLA TYPHIMURIUM, Strain/Indicator: TA100, Metabolic Activation: MOUSE, LIVER, S-9, 2,3,7,8-TETRACHLORODIBENZO-P-DIOXIN, Method: STANDARD PLATE",active; positive
same,mutagenic call,"Test System: AMES SALMONELLA TYPHIMURIUM, Strain/Indicator: TA100, Metabolic Activation: MOUSE, LIVER, S-9, 3-METHYLCHOLANTHRENE, Method: STANDARD PLATE",active; positive
same,mutagenic call,[5],inactive; negative
same,mutagenic call,"Test System: AMES SALMONELLA TYPHIMURIUM, Strain/Indicator: TA100, Metabolic Activation: RAT, LIVER, S-9, 3-METHYLCHOLANTHRENE, Method: STANDARD PLATE",active; positive
same,mutagenic call,[6],active; positive
same,mutagenic call,"Test System: AMES SALMONELLA TYPHIMURIUM, Strain/Indicator: TA1535, Metabolic Activation: NONE, Method: STANDARD PLATE",inactive; negative
same,mutagenic call,"Test System: AMES SALMONELLA TYPHIMURIUM, Strain/Indicator: TA1535, Metabolic Activation: RAT, LIVER, S-9, 3-METHYLCHOLANTHRENE, Method: STANDARD PLATE",inactive; negative
same,mutagenic call,"Test System: AMES SALMONELLA TYPHIMURIUM, Strain/Indicator: TA1535, Metabolic Activation: RAT, LIVER, S-9, AROCLOR 1254, Method: STANDARD PLATE",inactive; negative
same,mutagenic call,"Test System: AMES SALMONELLA TYPHIMURIUM, Strain/Indicator: TA1537, Metabolic Activation: NONE, Method: STANDARD PLATE",inactive; negative
same,mutagenic call,"Test System: AMES SALMONELLA TYPHIMURIUM, Strain/Indicator: TA1537, Metabolic Activation: RAT, LIVER, S-9, 3-METHYLCHOLANTHRENE, Method: STANDARD PLATE",active; positive
same,mutagenic call,"Test System: AMES SALMONELLA TYPHIMURIUM, Strain/Indicator: TA1537, Metabolic Activation: RAT, LIVER, S-9, AROCLOR 1254, Method: STANDARD PLATE",active; positive
same,mutagenic call,"Test System: AMES SALMONELLA TYPHIMURIUM, Strain/Indicator: TA1538, Metabolic Activation: NONE, Method: STANDARD PLATE",inactive; negative
same,mutagenic call,"Test System: AMES SALMONELLA TYPHIMURIUM, Strain/Indicator: TA1538, Metabolic Activation: RAT, LIVER, S-9, 3-METHYLCHOLANTHRENE, Method: STANDARD PLATE",active; positive
same,mutagenic call,"Test System: AMES SALMONELLA TYPHIMURIUM, Strain/Indicator: TA1538, Metabolic Activation: RAT, LIVER, S-9, AROCLOR 1254, Method: STANDARD PLATE",active; positive
COC(=O)Nc1nc2ccc(C(=O)c3ccccc3)cc2[nH]1,mutagenic call,[3],inactive; negative
same,mutagenic call,[4],active; positive
same,mutagenic call,[5],inactive; negative
O=C1c2ccccc2C(=O)N1CCCN1c2ccccc2Sc2ccc(Cl)cc21,mutagenic call,"Test System: AMES SALMONELLA TYPHIMURIUM, Strain/Indicator: TA98, Metabolic Activation: NONE, Method: SPOT TEST",inactive; negative
Cc1c(O)cc2c(c1O)C(=O)c1ccccc1C2=O,mutagenic call,"Test System: AMES SALMONELLA TYPHIMURIUM, Strain/Indicator: TA98, Metabolic Activation: NONE, Method: PREINCUBATION",inactive; negative
same,mutagenic call,"Test System: AMES SALMONELLA TYPHIMURIUM, Strain/Indicator: TA98, Metabolic Activation: RAT, LIVER, S-9, AROCLOR 1254, Method: PREINCUBATION",active; positive
same,mutagenic call,"Test System: AMES SALMONELLA TYPHIMURIUM, Strain/Indicator: TA98, Metabolic Activation: RAT, LIVER, S-9, PCB, Method: PREINCUBATION",active; positive
same,mutagenic call,"Test System: AMES SALMONELLA TYPHIMURIUM, Strain/Indicator: TA100, Metabolic Activation: NONE, Method: PREINCUBATION",inactive; negative
same,mutagenic call,"Test System: AMES SALMONELLA TYPHIMURIUM, Strain/Indicator: TA100, Metabolic Activation: RAT, LIVER, S-9, AROCLOR 1254, Method: PREINCUBATION",active; positive
same,mutagenic call,"Test System: AMES SALMONELLA TYPHIMURIUM, Strain/Indicator: TA100, Metabolic Activation: RAT, LIVER, S-9, PCB, Method: PREINCUBATION",active; positive
same,mutagenic call,"Test System: AMES SALMONELLA TYPHIMURIUM, Strain/Indicator: TA1537, Metabolic Activation: NONE, Method: PREINCUBATION",inactive; negative
same,mutagenic call,"Test System: AMES SALMONELLA TYPHIMURIUM, Strain/Indicator: TA1537, Metabolic Activation: RAT, LIVER, S-9, AROCLOR 1254, Method: PREINCUBATION",active; positive
same,mutagenic call,"Test System: UDS RODENT HEPATOCYTES, Strain/Indicator: THY INCORP, Metabolic Activation: NONE",active; positive
